Values of other authors as cited in patent publication US20240141352A1, “CHAPERONIN-CONTAINING TCP-1 INHIBITORS FOR THE TREATMENT OF CANCER” (UNIVERSITY OF CENTRAL FLORIDA RESEARCH FOUNDATION, INC., priority 2021, published 2024).

What was measured:
[1] = system: MDA-MB-231 cells; settings: MDA-MB-231 spheroids
[2] = system: cancer cells that highly express CCT
[3] = system: breast and prostate tumors; settings: systemic delivery with polymeric nanoparticles
[4] = biological target: T1, CCT2 subunit (Homo sapiens, UniProt P78371)
T1 sequence (P78371 1-535): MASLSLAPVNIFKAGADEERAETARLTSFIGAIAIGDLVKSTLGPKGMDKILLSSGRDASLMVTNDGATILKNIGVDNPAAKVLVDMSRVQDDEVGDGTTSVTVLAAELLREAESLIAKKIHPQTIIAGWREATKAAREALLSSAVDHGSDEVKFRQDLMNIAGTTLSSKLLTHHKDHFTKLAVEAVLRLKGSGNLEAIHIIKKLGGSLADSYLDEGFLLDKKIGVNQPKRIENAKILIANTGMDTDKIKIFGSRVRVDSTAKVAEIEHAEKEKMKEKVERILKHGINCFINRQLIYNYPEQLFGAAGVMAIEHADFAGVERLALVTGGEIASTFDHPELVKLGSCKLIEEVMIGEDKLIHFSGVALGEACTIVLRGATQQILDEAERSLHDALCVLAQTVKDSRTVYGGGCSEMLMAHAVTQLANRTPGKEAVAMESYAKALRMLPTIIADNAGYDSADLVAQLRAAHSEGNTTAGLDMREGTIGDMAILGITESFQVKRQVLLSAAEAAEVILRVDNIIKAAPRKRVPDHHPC

Compound | resistance of spheroids to treatment [1] | cytotoxicity [2] | tumor regression [3] | binding to CCT2 subunit [4]
COc1cccc2c1C(=O)c1c(O)c3c(c(O)c1C2=O)C[C@@](O)(C(=O)CO)C[C@@H]3O[C@H]1C[C@H](N)[C@H](O)[C@H](C)O1 [doxorubicin] | increased resistance |  |  | 
N.N.O=C([O-])C1(C(=O)[O-])CCC1.[Pt+2] [carboplatin] | increased resistance |  |  | 
VTIFVAGVLTASLTIWKKMG [CT20p] |  | cytotoxic | regression | directly binds
